Square brackets hold non-standard residues; d marks the D form. Peptide text beside a SMILES is read from it. * marks the point of attachment. pNA = O=[N+]([O-])c1ccc(N*)cc1
Columns and labels:
[1] = biological target: Urokinase-type plasminogen activator (Homo sapiens, UniProt P00749); assay: Inhibition of urokinase (unknown origin) using Pyr-Glu-Gly-Arg-pNA as substrate; settings: for inhibition: concentration not given here
Trypsin = Trypsin (Homo sapiens, UniProt P07477+P07478+P35030); assay: Inhibition of trypsin (unknown origin) using H-D-Phe-Pip-Arg-pNA as substrate; format: protein assay
Plasminogen [2] = biological target: T1, Plasminogen (Homo sapiens, UniProt P00747); assay: Inhibition of plasmin (unknown origin) using H-D-Val-Leu-Lys-pNA as substrate
T1 sequence (P00747 97-580 limits assumed): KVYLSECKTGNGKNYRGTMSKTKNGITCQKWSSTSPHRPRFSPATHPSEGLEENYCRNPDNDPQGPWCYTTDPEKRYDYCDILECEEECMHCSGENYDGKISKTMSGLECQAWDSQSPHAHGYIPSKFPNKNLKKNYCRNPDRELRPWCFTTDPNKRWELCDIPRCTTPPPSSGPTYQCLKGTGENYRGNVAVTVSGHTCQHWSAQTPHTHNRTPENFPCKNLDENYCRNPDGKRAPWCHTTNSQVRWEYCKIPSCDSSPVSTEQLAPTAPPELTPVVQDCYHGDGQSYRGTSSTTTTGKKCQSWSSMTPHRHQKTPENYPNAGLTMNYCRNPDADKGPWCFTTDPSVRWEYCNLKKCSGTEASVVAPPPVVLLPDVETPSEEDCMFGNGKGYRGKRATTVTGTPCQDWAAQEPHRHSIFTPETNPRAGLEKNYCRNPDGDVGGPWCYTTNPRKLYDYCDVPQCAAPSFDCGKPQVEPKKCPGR
T1 sequence (P00747 581-810 limits assumed): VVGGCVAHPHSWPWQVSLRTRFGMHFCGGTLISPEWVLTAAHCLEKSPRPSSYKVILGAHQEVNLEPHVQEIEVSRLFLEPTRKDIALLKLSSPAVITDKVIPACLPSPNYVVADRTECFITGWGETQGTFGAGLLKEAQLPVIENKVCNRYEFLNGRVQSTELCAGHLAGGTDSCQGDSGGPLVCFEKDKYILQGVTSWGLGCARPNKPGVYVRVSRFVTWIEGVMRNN

Plasminogen [3] = biological target: T1, Plasminogen; assay: Inhibition of plasmin (unknown origin)
Plasminogen [4] = biological target: T1, Plasminogen; assay: Inhibition of human plasmin
Plasminogen [5] = biological target: T1, Plasminogen; assay: Inhibition of human plasmin assessed as inhibition of fibrinogenolysis in presence of fibrinogen
Plasminogen [6] = biological target: T1, Plasminogen; assay: Inhibition of human plasmin assessed as inhibition of amidolysis in presence of fibrinogen
Plasminogen [7] = biological target: T1, Plasminogen; assay: Inhibition of human plasmin assessed as inhibition of fibrinolysis in presence of fibrinogen

SMILES: CCCCCCCCNC(=O)[C@H](Cc1ccc(OCc2cccc(C(=O)OCC)c2)cc1)NC(=O)[C@H]1CC[C@H](CN)CC1
- IC50 [1]: > 50 µM
- inhibition [1]: 7%
- IC50 (Trypsin): 2.7 µM
- IC50 (Plasminogen [2]): 0.51 µM

SMILES: CCCCCCCCNC(=O)[C@H](Cc1ccc(OCc2cccc(N)c2)cc1)NC(=O)[C@H]1CC[C@H](CN)CC1
- IC50 [1]: > 100 µM
- inhibition [1]: 31%
- IC50 (Trypsin): 0.86 µM
- IC50 (Plasminogen [2]): 0.86 µM

SMILES: CC[C@@H](C)[C@@H](N)C(=O)N[C@@H](Cc1ccc(OCc2ccncc2)cc1)C(=O)N[C@H](C#N)CCCCN
- IC50 (Plasminogen [3]): 11 µM

SMILES: CCCCCCCCNC(=O)[C@H](Cc1ccc(OCc2ccccc2C(=O)OC)cc1)NC(=O)[C@H]1CC[C@H](CN)CC1
- IC50 [1]: > 200 µM
- inhibition [1]: 23%
- IC50 (Trypsin): 4.8 µM
- IC50 (Plasminogen [2]): 1.5 µM

SMILES: CCCCCCCCNC(=O)[C@H](Cc1ccc(OCc2ccc(C(F)(F)F)cc2)cc1)NC(=O)[C@H]1CC[C@H](CN)CC1
- IC50 [1]: > 100 µM
- inhibition [1]: 6%
- IC50 (Trypsin): 6.9 µM
- IC50 (Plasminogen [2]): 0.96 µM

SMILES: CCCCCCCCNC(=O)[C@H](Cc1ccc(OCc2cccc(C(=O)O)c2)cc1)NC(=O)[C@H]1CC[C@H](CN)CC1
- IC50 [1]: > 50 µM
- inhibition [1]: 13%
- IC50 (Trypsin): 2 µM
- IC50 (Plasminogen [2]): 0.53 µM

SMILES: CCCCCCCCNC(=O)[C@H](Cc1ccc(OCc2cccc(C(F)(F)F)c2)cc1)NC(=O)[C@H]1CC[C@H](CN)CC1
- IC50 [1]: > 100 µM
- inhibition [1]: 12%
- IC50 (Trypsin): 2.5 µM
- IC50 (Plasminogen [2]): 0.6 µM

SMILES: CCCCCCCCNC(=O)[C@H](Cc1ccc(OCc2cccc(OCc3ccncc3)c2)cc1)NC(=O)[C@H]1CC[C@H](CN)CC1
- IC50 [1]: > 50 µM
- inhibition [1]: 36%
- IC50 (Trypsin): 1.3 µM
- IC50 (Plasminogen [2]): 0.97 µM

SMILES: CCCCCCCCNC(=O)[C@H](Cc1ccc(OCc2ccc3ccccc3c2)cc1)NC(=O)[C@H]1CC[C@H](CN)CC1
- IC50 [1]: > 100 µM
- inhibition [1]: 23%
- IC50 (Trypsin): 4.4 µM
- IC50 (Plasminogen [2]): 0.71 µM

SMILES: CC(C)C[C@H](NC(=O)[C@H](N)C(C)C)C(=O)N[C@@H](CCCCN)C(=O)Nc1ccc([N+](=O)[O-])cc1 (H-[dV]-Leu-Lys-pNA)
- IC50 (Plasminogen [4]): 0.53 µM

SMILES: CCCCCCCCNC(=O)[C@H](Cc1ccc(OCc2ccncc2)cc1)NC(=O)[C@H]1CC[C@H](CN)CC1
- IC50 [1]: 5.3 µM
- IC50 (Trypsin): 1.1 µM
- IC50 (Plasminogen [2]): 0.53 µM

SMILES: CC[C@@H](C)[C@@H](N)C(=O)N[C@@H](Cc1ccc(OCc2cccc(OCc3ccncc3)c2)cc1)C(=O)N[C@H](C#N)CCCCN
- IC50 (Plasminogen [3]): 7.7 µM

SMILES: CCCCCCCCNC(=O)[C@H](Cc1ccc(OC(C)(C)C)cc1)NC(=O)[C@H]1CC[C@H](CN)CC1
- IC50 [1]: > 100 µM
- inhibition [1]: 17%
- IC50 (Trypsin): 0.38 µM
- IC50 (Plasminogen [2]): 17 µM

SMILES: CCCCCCCCNC(=O)[C@H](Cc1ccc(OCc2ccc(C(=O)OCC)cc2)cc1)NC(=O)[C@H]1CC[C@H](CN)CC1
- IC50 [1]: > 200 µM
- inhibition [1]: 40%
- IC50 (Trypsin): 6.1 µM
- IC50 (Plasminogen [2]): 0.49 µM

SMILES: CCCCCCCCNC(=O)[C@H](Cc1ccc(OCc2ccccc2)cc1)NC(=O)[C@H]1CC[C@H](CN)CC1
- IC50 [1]: > 100 µM
- inhibition [1]: 0%
- IC50 (Trypsin): 2.2 µM
- IC50 (Plasminogen [2]): 1.7 µM

SMILES: CCCCCCCCNC(=O)[C@H](Cc1ccc(OCc2ccccc2C(F)(F)F)cc1)NC(=O)[C@H]1CC[C@H](CN)CC1
- IC50 [1]: > 100 µM
- inhibition [1]: 5%
- IC50 (Trypsin): 4.6 µM
- IC50 (Plasminogen [2]): 3 µM

SMILES: CCCCCCCCNC(=O)[C@H](Cc1ccc(OCc2cccc3ccccc23)cc1)NC(=O)[C@H]1CC[C@H](CN)CC1
- IC50 [1]: > 100 µM
- inhibition [1]: 10%
- IC50 (Trypsin): 2.7 µM
- IC50 (Plasminogen [2]): 1.6 µM

SMILES: CCCCCCCCNC(=O)[C@H](Cc1ccc(OCc2ccc(C(=O)O)cc2)cc1)NC(=O)[C@H]1CC[C@H](CN)CC1
- IC50 [1]: > 100 µM
- inhibition [1]: 22%
- IC50 (Trypsin): 4.7 µM
- IC50 (Plasminogen [2]): 2.7 µM

SMILES: CCCCCCCCNC(=O)[C@H](Cc1ccc(OCc2cccc3cccnc23)cc1)NC(=O)[C@H]1CC[C@H](CN)CC1
- IC50 [1]: > 100 µM
- inhibition [1]: 24%
- IC50 (Trypsin): 0.93 µM
- IC50 (Plasminogen [2]): 0.34 µM

SMILES: CCCCCCCCNC(=O)[C@H](Cc1ccc(OCc2cccc([N+](=O)[O-])c2)cc1)NC(=O)[C@H]1CC[C@H](CN)CC1
- IC50 [1]: > 100 µM
- inhibition [1]: 13%
- IC50 (Trypsin): 2.1 µM
- IC50 (Plasminogen [2]): 0.68 µM

SMILES: CCCCCCCCNC(=O)[C@H](Cc1ccc(O)cc1)NC(=O)[C@H]1CC[C@H](CN)CC1
- IC50 [1]: 62 µM
- IC50 (Trypsin): 1 µM
- IC50 (Plasminogen [2]): 67 µM

SMILES: CCCCCCNC(=O)[C@H](Cc1ccc(OCc2cccnc2)cc1)NC(=O)c1ccc(CN)cc1
- IC50 (Plasminogen [5]): 4.5 µM
- Ki (Plasminogen [6]): 2.9 µM
- IC50 (Plasminogen [7]): 2.9 µM

SMILES: CCCCCCCCNC(=O)[C@H](Cc1ccc(OCc2cccc(-c3ccccc3)c2)cc1)NC(=O)[C@H]1CC[C@H](CN)CC1
- IC50 [1]: > 100 µM
- inhibition [1]: 41%
- IC50 (Trypsin): 6.7 µM
- IC50 (Plasminogen [2]): 0.75 µM

SMILES: CCCCCCCCNC(=O)[C@H](Cc1ccc(OCc2ccc3ccccc3n2)cc1)NC(=O)[C@H]1CC[C@H](CN)CC1
- IC50 [1]: 77 µM
- IC50 (Trypsin): 1.4 µM
- IC50 (Plasminogen [2]): 0.22 µM

Source: ChEMBL document CHEMBL3751846, “Active site-directed plasmin inhibitors: Extension on the P2 residue” (Bioorg Med Chem, 2016)
